# Legend:
# Mus musculus [1] = test: Range of survival days for antitumor activity against Ip implanted L1210 / ara-C (I) lymphoid leukemia in mice at a dose of 400 mg/kg per day; format: functional; details: route intraperitoneal
# Mus musculus [2] = test: Increase of life span was determined against Ip implanted L1210 / 0 lymphoid leukemia in mice at a dose of 200 mg/kg per day after treatment 1,15; format: functional; details: L1210/0, ip, route intraperitoneal
# Mus musculus [3] = test: Survival time treated for antitumor activity against Ip implanted L1210 / 0 lymphoid leukemia in mice at a dose of 400 mg/kg per day;>42.5/7; details: route intraperitoneal
# Mus musculus [4] = test: Range of survival days for antitumor activity against Ip implanted L1210 / ara-C (II) lymphoid leukemia in mice at a dose of 300 mg/kg per day; format: functional; details: route intraperitoneal
# Mus musculus [5] = test: Range of survival days for antitumor activity against Ip implanted L1210 / 0 lymphoid leukemia in mice at a dose of 400 mg/kg per day after treatment 0;range is 14->45; details: route intraperitoneal
# Mus musculus [6] = test: Range of survival days for antitumor activity against Ip implanted L1210 / 0 lymphoid leukemia in mice at a dose of 60 mg/kg per day after treatment 1-5;range is 27->45; format: functional; details: route intraperitoneal
# Mus musculus [7] = test: Survival time treated for antitumor activity against Ip implanted L1210 / 0 lymphoid leukemia in mice at a dose of 200 mg/kg per day after treatment 1;32/7; details: route intraperitoneal
# Mus musculus [8] = test: Increase of life span was determined against Ip implanted L1210 / 0 lymphoid leukemia in mice at a dose of 60 mg/kg per day after treatment 1-5; format: functional; details: L1210/0, ip, route intraperitoneal
# Mus musculus [9] = test: Increase of life span was determined against Ip implanted L1210 / 0 lymphoid leukemia in mice at a dose of 100 mg/kg per day after treatment 1,8,15,22; format: functional; details: L1210/0, ip, route intraperitoneal
# Mus musculus [10] = test: Median survival time for antitumor activity against Ip implanted L1210 / 0 lymphoid leukemia in mice at a dose of 300 mg/kg per day after treatment 1,15; details: route intraperitoneal
# Mus musculus [11] = test: Range of survival days for antitumor activity against Ip implanted L1210 / ara-C (I) lymphoid leukemia in mice at a dose of 133 mg/kg per day; format: functional; details: route intraperitoneal
# Mus musculus [12] = test: Increase of life span was determined against Ip implanted L1210 / ara-C (I) lymphoid leukemia in mice at a dose of 133 mg/kg per day; format: functional; details: route intraperitoneal
# Mus musculus [13] = test: Survival time treated for antitumor activity against Ip implanted L1210 / 0 lymphoid leukemia in mice at a dose of 200 mg/kg per day after treatment 1,8,15,22;24.5/7; details: route intraperitoneal
# Mus musculus [14] = test: Survival time treated for antitumor activity against Ip implanted L1210 / 0 lymphoid leukemia in mice at a dose of 400 mg/kg per day after treatment -1;21.5/7; details: route intraperitoneal
# Mus musculus [15] = test: Range of survival days for antitumor activity against Ip implanted L1210 / 0 lymphoid leukemia in mice at a dose of 200 mg/kg per day after treatment 5;range is 15-16; format: functional; details: route intraperitoneal
# Mus musculus [16] = test: Range of survival days for antitumor activity against Ip implanted L1210 / ara-C(I) lymphoid leukemia in mice at a dose of 80 mg/kg per day; format: functional; details: route intraperitoneal
# Mus musculus [17] = test: Range of survival days for antitumor activity against Ip implanted L1210 / 0 lymphoid leukemia in mice at a dose of 400 mg/kg per day after treatment -1;range is 12->45; format: functional; details: route intraperitoneal
# Mus musculus [18] = test: Survival time treated for antitumor activity against Ip implanted L1210 / 0 lymphoid leukemia in mice at a dose of 200 mg/kg per day after treatment 5;15/7; details: route intraperitoneal
# Mus musculus [19] = test: Increase of life span was determined against Ip implanted L1210 / 0 lymphoid leukemia in mice at a dose of 300 mg/kg per day after treatment 1; format: functional; details: L1210/0, ip, route intraperitoneal
# Mus musculus [20] = test: Survival time treated for antitumor activity against Ip implanted L1210 / 0 lymphoid leukemia in mice at a dose of 60 mg/kg per day after treatment 1-5;31/8; details: route intraperitoneal
# Mus musculus [21] = test: Range of survival days for antitumor activity against Ip implanted L1210 / 0 lymphoid leukemia in mice at a dose of 100 mg/kg per day after treatment 1,5,9;range is 18-29; format: functional; details: route intraperitoneal
# Mus musculus [22] = test: Increase of life span was determined against Ip implanted L1210 / 0 lymphoid leukemia in mice at a dose of 300 mg/kg per day after treatment 1,15; format: functional; details: L1210/0, ip, route intraperitoneal
# Mus musculus [23] = test: Survival time of treated mice for antitumor activity against Ip implanted L1210 / 0 lymphoid leukemia in mice at a dose of 400 mg/kg per day after treatment 5;14.5/7; details: route intraperitoneal
# Mus musculus [24] = test: Increase of life span was determined against Ip implanted L1210 / 0 lymphoid leukemia in mice at a dose of 400 mg/kg per day; format: functional; details: L1210/0, ip, route intraperitoneal
# Mus musculus [25] = test: Increase of life span was determined against Ip implanted L1210 / 0 lymphoid leukemia in mice at a dose of 200 mg/kg per day after treatment 1,8,15,22; format: functional; details: L1210/0, ip, route intraperitoneal
# Mus musculus [26] = test: Range of survival days for antitumor activity against Ip implanted L1210 / 0 lymphoid leukemia in mice at a dose of 400 mg/kg per day after treatment 5;range is 12-16; format: functional; details: route intraperitoneal
# Mus musculus [27] = test: Increase of life span was determined against Ip implanted L1210 / 0 lymphoid leukemia in mice at a dose of 200 mg/kg per day after treatment 5; format: functional; details: L1210/0, ip, route intraperitoneal
# Mus musculus [28] = test: Range of survival days for antitumor activity against Ip implanted L1210 / 0 lymphoid leukemia in mice at a dose of 200 mg/kg per day after treatment 1,15;range is 22-32; format: functional; details: route intraperitoneal
# Mus musculus [29] = test: Increase of life span was determined against Ip implanted L1210 / ara-C (I) lymphoid leukemia in mice at a dose of 400 mg/kg per day; format: functional; details: route intraperitoneal
# Mus musculus [30] = test: Increase of life span was determined against Ip implanted L1210 / 0 lymphoid leukemia in mice at a dose of 100 mg/kg per day after treatment 1,5,9; format: functional; details: L1210/0, ip, route intraperitoneal
# Mus musculus [31] = test: Increase of life span was determined against Ip implanted L1210 / 0 lymphoid leukemia in mice at a dose of 400 mg/kg per day after treatment -1; format: functional; details: L1210/0, ip, route intraperitoneal
# Mus musculus [32] = test: Range of survival days for antitumor activity against Ip implanted L1210 / 0 lymphoid leukemia in mice at a dose of 200 mg/kg per day after treatment 1;range is 24->45; format: functional; details: route intraperitoneal
# Mus musculus [33] = test: Range of survival days for antitumor activity against Ip implanted L1210 / 0 lymphoid leukemia in mice at a dose of 400 mg/kg per day after treatment 2;range is 12-26; format: functional; details: route intraperitoneal
# Mus musculus [34] = test: Increase of life span was determined against Ip implanted L1210 / 0 lymphoid leukemia in mice at a dose of 400 mg/kg per day after treatment 2; format: functional; details: L1210/0, ip, route intraperitoneal
# Mus musculus [35] = test: Survival time of treated mice for antitumor activity against Ip implanted L1210 / 0 lymphoid leukemia in mice at a dose of 100 mg/kg per day after treatment 1,5,9;25/8; details: route intraperitoneal
structure (smiles),measurement,setting,value
CCCCCCCCCCCCCCCCCCSCC(COP(=O)(O)OP(=O)(O)OC[C@H]1O[C@@H](n2ccc(N)nc2=O)[C@@H](O)[C@@H]1O)OC(=O)CCCCCCCCCCCCCCC (mixture of isomers),Range,Mus musculus [1],>45
same,ILS at 200 mg/kg/day,Mus musculus [2],293%
same,survival time,Mus musculus [3],> 42.5 days
same,Range,Mus musculus [4],8
same,Range of survival days,Mus musculus [5],>14
same,Range of survival days,Mus musculus [6],>27
same,survival time,Mus musculus [7],32 days
same,ILS at 60 mg/kg/day,Mus musculus [8],288%
same,ILS at 100 mg/kg/day,Mus musculus [9],243%
same,median survival time,Mus musculus [10],24.5 days
same,Range,Mus musculus [11],>45
same,ILS at 133 mg/kg/day,Mus musculus [12],> 350%
same,survival time,Mus musculus [13],24.5 days
same,survival time,Mus musculus [14],21.5 days
same,Range of survival days,Mus musculus [15],15
same,Range,Mus musculus [16],>25
same,Range of survival days,Mus musculus [17],>12
same,survival time,Mus musculus [18],15 days
same,ILS at 300 mg/kg/day,Mus musculus [19],371%
same,survival time,Mus musculus [20],31 days
same,Range of survival days,Mus musculus [21],18
same,ILS at 300 mg/kg/day,Mus musculus [22],243%
same,survival time,Mus musculus [23],14.5 days
same,ILS at 400 mg/kg/day,Mus musculus [24],> 507%
same,ILS at 200 mg/kg/day,Mus musculus [25],250%
same,Range of survival days,Mus musculus [26],12
same,ILS at 200 mg/kg/day,Mus musculus [27],114%
same,Range of survival days,Mus musculus [28],22
same,ILS at 400 mg/kg/day,Mus musculus [29],> 350%
same,ILS at 100 mg/kg/day,Mus musculus [30],213%
same,ILS at 400 mg/kg/day,Mus musculus [31],207%
same,Range of survival days,Mus musculus [32],>24
same,Range of survival days,Mus musculus [33],12
same,ILS at 400 mg/kg/day,Mus musculus [34],179%
same,survival time,Mus musculus [35],25 days
